From patent publication US10500197B2, “Use of oligopyridylamides to inhibit mutant p53 amyloid formation and restore its tumor suppressor function” (New York University, priority 2017, dated 2019)
Entries after “also recorded” stand apart in the source; their conditions may differ. Where no end group is shown, it is not given here.

Tests used:
[1] = target: R248W mutant p53 peptide (Homo sapiens, UniProt P04637, R248W); test: Thioflavin T (ThT) assay, inhibition of R248W peptide aggregation; format: biochemical; details: 1:1 ratio to R248W peptide, 37° C., 10 hours
Procedure: (§1) This fluorescence can be monitored overtime to estimate the increase in beta-sheet structure of incubated peptides, indicating amyloid formation. […] 50 μM ThT was incubated at 37° C. with varying concentrations of peptides and inhibitors to estimate both the aggregation propensity of mutant peptides and the abrogation of aggregation brought about by inhibitor treatment. All samples were sonicated, including the ThT solution, prior to each addition of peptides to ensure the obtainment of clear sigmoidal curves. Fluorescence in transparent-bottom 96-well sample plates was monitored by the cell plate reader Synergy H1 (BioTek).
To test the inhibition efficacy of these peptides, they were subjected to a ThT assay whereby a fixed concentration of R248W was treated with varying concentrations of the respective inhibitor peptide in the presence of ThT dye and buffer. […] It is hypothesized that this effect is due to the relative hydrophobicity of the PAS sequence (FFLIPKG) (FIG. 4B).
10 compounds based on the oligopyridylamide molecular scaffolds have been tested on mutant p53 aggregation models. A ThT assay was used to test the inhibition capability of each compound at a 1:1 ratio to the R248W mutant peptide.

[2] = system: COS-7 cells (wild-type p53); test: MTS cell viability in COS-7 cells; format: cell-based; details: 5 and 10 μM, 24 hours, serum-free media
Procedure: (§2) MTS assays were performed with Promega CellTiter One MTS solution according to protocol. MIA PaCa-2 cells were seeded at 2,000 cells/well, MCF-7 at 4,000 cells/well, COS-7 at 5,000 cells/well and HeLa at 3,000 cells/well. These values were individually optimized for the assay prior to experimentation. All cells were incubated for 24 hours to allow proper adherence to the well. On treatment day, wells were washed with warm PBS and media was replaced with a serum-free version. If treatment peptides were purified from crude form, they were also filtered using a 0.2 µm filter before introduction to cells. On MTS reading day, media was changed again (serum-free) and 20 μL of MTS was added to each 100 μL well. Cells were incubated at 37° C. for 2 hours before reading absorbance at 490 nm using Synergy H1 (BioTek) equipped with Gen5 software. Background absorbance from control wells was quantified and subtracted from obtained experimental absorbance values.
(§3) It has been shown that the ADH compounds have no toxic effect on N2a cells, which carry wild-type p53. Their effect on other wild-type p53 cell lines: MCF-7 and COS-7 was further investigated. Cells were incubated with ADH compounds 17, 27, 40, 41 and 46 for 24 hours at 5 and 10 μM in serum-free media before determining cell viability via MTS (FIG. 2).

[3] = system: MIA PaCa-2 cells (R248W p53 mutant); test: MTS cell viability assay in MIA PaCa-2 cells; format: cell-based; details: 5 and 10 μM, 24 and 48 hours, serum-free media
Procedure: MIA PaCa-2 (CRL-1420) cells, which contain the R248W p53 contact mutant, were obtained from ATCC and cultured in ATCC-formulated Dulbecco's Modified Eagle's Medium supplemented with 10% fetal bovine serum (FBS), 2.5% horse serum, 4% 200 mM L-glutamine and 1% penicillin/streptomycin. A separate stock of serum-free medium was kept for cell viability assays. Cells were split at a 1:3 ratio 2-3 times a week and maintained at 80% confluence and >85% viability. Viability was regularly measured through Trypan Blue dilution correction during cell counting. Cell cultures were stored at 37° C. in T75 coated flasks and kept under 5% CO2.
MTS assays were performed with Promega CellTiter One MTS solution according to protocol. MIA PaCa-2 Cells were seeded at 2,000 cells/well and were incubated for 24 hours to allow proper adherence to the well. On treatment day, wells were washed with warm PBS and media was replaced with a serum-free version. If treatment peptides were purified from crude form, they were also filtered using a 0.2 µm filter before introduction to cells. On MTS reading day, media was changed again (serum-free) and 20 μL of MTS was added to each 100 μL well. Cells were incubated at 37° C. for 2 hours before reading absorbance at 490 nm using Synergy H1 (BioTek) equipped with Gen5 software.
as §2
The two classes of designed peptide inhibitors have been introduced to a cancer cell-line that harbors the R248W p53 mutant, MIA PaCa-29. It has been hypothesized that upon co-localization of the inhibitors with mutant p53, mutant p53 aggregates will be abrogated, resulting in the release of wild-type p53 from cellular inclusions and, eventually, the induction of apoptosis. The 4 designed peptides were introduced to MIA PaCa-2 cells at 5 and 10 μM for 24 and 48 hour incubation periods. MTS assay was used to assess cell viability after treatment, whereby the bio-reduction of the MTS tetrazolium compound results in detectable color change that is proportional to the number of viable cells left in a sample (see Example 1).
MIA PaCa-2 cells were incubated with ADH compounds 17, 27, 31, 37, 39, 40, 41, 45, 46, and 52 (5 and 10 μM) for 24 and 48 hours. Cell viability was determined using the MTS assay.

[4] = target: R248W mutant p53 peptide aggregates (Homo sapiens, UniProt P04637, R248W); test: Multi-step ThT assay, abrogation of pre-formed R248W aggregates; format: biochemical; details: 50 μM R248W incubated 35 minutes at 37° C., then equimolar ADH compound
Procedure: as §1
Accordingly, a multi-step ThT assay was designed that would evaluate the ability of an inhibitor to abrogate aggregation at different stages of amyloid formation. Based on the sigmoidal curve produced in ThT assays of the R248W peptide, 3 time points were selected to introduce the inhibitor to mutant p53 aggregates. The first would occur at 0 mins, where no R248W aggregates would have been previously formed. The second time point would be approximately 30 mins after aggregation begins, during the exponential increase in fluorescence of the R248W ThT sigmoidal curve. The last time point would be during the plateau phase of the curve at approximately 5 hours after initiation of the assay, whereby aggregates reach an equilibrium phase and stabilize in solution.
In order to target p53 aggregation in the cellular environment, the ADH compounds according to the invention would need to bind and abrogate pre-formed p53 aggregates, as well as prevent additional aggregation. Inhibition of pre-formed aggregates would be a crucial feature of therapeutics that successfully target mutant p53 aggregation in cancer. Using the multi-step thioflavin T assay, where the inhibitor is added to R248W at either elongation or the plateau phases of amyloid formation, 50 μM of the R248W peptide was incubated at 37° C. for 35 minutes before adding an equimolar ratio of the ADH compound (FIG. 1).

[5] = system: HeLa cells; test: MTS cell viability in HeLa cells; format: cell-based; details: 5 or 10 μM, 24 hours, serum-free media
Procedure: as §2
It has been hypothesized that the ADH compounds may bind to wild-type p53 in a manner that preserves its main function, yet disrupts other protein-protein interactions in the cellular environment. HeLa cells are known to have very low p53 expression levels, which is attributed to the expression of the HPV-E6 protein. E6 proteins target p53 for proteasomal degradation via the ubiquitin pathway by binding to p53's core domain (residues 94-292) and C-terminus. Because it has been hypothesized that the effective ADH compounds (40, 41, and 46) target the p53 DNA-binding domain located in its core region, the compounds may prevent E6 binding, leading to p53 accumulation and eventually apoptosis. […] Since ReACp53 is a sequence-specific peptide that targets the p53 DNA-binding domain, it may also prevent E6 binding through a similar mechanism.

[6] = system: MCF-7 cells (wild-type p53); test: MTS cell viability in MCF-7 cells; format: cell-based; details: 5 and 10 μM, 24 hours, serum-free media
Procedure: as §2, §3

Compound: COC(=O)c1ccc(NC(=O)c2ccc(NC(=O)c3ccc([N+](=O)[O-])c(OC(C)C)n3)c(OCc3ccccc3)n2)c(OCCCN)n1 [ADH-39]
- inhibition of R248W mutant p53 aggregation by ADH compounds (ThT fluorescence) [1]: inhibit mutant p53 aggregation with varying levels of effectiveness

Compound: COC(=O)c1ccc(NC(=O)c2ccc(NC(=O)c3ccc([N+](=O)[O-])c(OCCCN)n3)c(OCc3ccccc3)n2)c(OCCCN)n1 [ADH-37]
- inhibition of R248W mutant p53 aggregation by ADH compounds (ThT fluorescence) [1]: inhibit mutant p53 aggregation with varying levels of effectiveness

Compound: CCCCOc1nc(C(=O)Nc2ccc(C(=O)Nc3ccc(C(=O)OC)nc3OCCCN)nc2OCCCN)ccc1[N+](=O)[O-] [ADH-40]
- toxicity in COS-7 cells (MTS) [2]: No significant toxicity; also recorded: do not induce significant toxicity
- inhibition of R248W mutant p53 aggregation by ADH compounds (ThT fluorescence) [1]: inhibit mutant p53 aggregation with varying levels of effectiveness
- effect of ADH compounds on MIA PaCa-2 cell viability (MTS) [3]: highly significant toxicity; also recorded: extremely significant effect on cell viability
- abrogation of R248W aggregates at the elongation phase [4]: abrogate aggregation at the elongation phase; also recorded: able to target and abrogate aggregates at the elongation phase
- toxicity in HeLa cells (MTS) [5]: Significant toxicity; also recorded: significantly toxic
- toxicity in MCF-7 cells (MTS) [6]: No significant toxicity; also recorded: do not induce significant toxicity

Compound: COC(=O)c1ccc(NC(=O)c2ccc(NC(=O)c3ccc(NC(=O)c4ccc([N+](=O)[O-])c(OCC(C)C)n4)c(OCc4ccccc4)n3)c(OCC(=O)O)n2)c(OCC(=O)O)n1 [ADH-31]
- inhibition of R248W mutant p53 aggregation by ADH compounds (ThT fluorescence) [1]: inhibit mutant p53 aggregation with varying levels of effectiveness

Compound: COC(=O)c1ccc(NC(=O)c2ccc(NC(=O)c3ccc([N+](=O)[O-])c(OCC(C)C)n3)c(OCCCN)n2)c(OCCCN)n1 [ADH-46]
- toxicity in COS-7 cells (MTS) [2]: No significant toxicity; also recorded: do not induce significant toxicity
- inhibition of R248W mutant p53 aggregation by ADH compounds (ThT fluorescence) [1]: inhibit mutant p53 aggregation with varying levels of effectiveness
- effect of ADH compounds on MIA PaCa-2 cell viability (MTS) [3]: highly significant toxicity; also recorded: extremely significant effect on cell viability
- abrogation of R248W aggregates at the elongation phase [4]: abrogate aggregation at the elongation phase; also recorded: able to target and abrogate aggregates at the elongation phase
- toxicity in HeLa cells (MTS) [5]: Significant toxicity; also recorded: significantly toxic
- toxicity in MCF-7 cells (MTS) [6]: No significant toxicity; also recorded: do not induce significant toxicity

Compound: ReACp53: recently developed peptide that targets p53 aggregation, oligoarginine tag, (image prefix) RPILTRITLE (also: oligoarginine tag) [reference compound]
- toxicity in COS-7 cells (MTS) [2]: No significant toxicity; also recorded: does not appear to induce toxicity
- cytotoxicity of peptides in MIA PaCa-2 cells (MTS) [3]: induce cell death; also recorded: significantly cytotoxic
- toxicity in HeLa cells (MTS) [5]: induce significant toxicity; also recorded: significantly toxic
- toxicity in MCF-7 cells (MTS) [6]: No significant toxicity; also recorded: does not appear to induce toxicity

Compound: COC(=O)c1ccc(NC(=O)c2ccc(NC(=O)c3ccc([N+](=O)[O-])c(OCC(=O)O)n3)c(OCc3ccccc3)n2)c(OCC(=O)O)n1 [ADH-17]
- toxicity in COS-7 cells (MTS) [2]: No significant toxicity; also recorded: do not induce significant toxicity
- effect of ADH compounds on MIA PaCa-2 cell viability (MTS) [3]: non-toxic effects
- toxicity in MCF-7 cells (MTS) [6]: No significant toxicity; also recorded: do not induce significant toxicity

Compound: COC(=O)c1ccc(NC(=O)c2ccc(NC(=O)c3ccc([N+](=O)[O-])c(OCc4ccccc4)n3)c(OCC(=O)O)n2)c(OCC(=O)O)n1 [ADH-27]
- toxicity in COS-7 cells (MTS) [2]: No significant toxicity; also recorded: do not induce significant toxicity
- toxicity in MCF-7 cells (MTS) [6]: No significant toxicity; also recorded: do not induce significant toxicity
